Measurements published in US7670579B2, “Nanostructured bioactive materials prepared by dual nozzle spray drying techniques” (American Dental Association Foundation, priority 2004, dated 2010).

Legend:
[1] = comparison value for crystalline CaF2; cited from earlier work
[2] = Reaction of CaF2 with macro DCPD in water paste, XRD; type: physicochemical; conditions: paste with water 1g/1 mL, 100% humidity, 37° C., 24 h
Protocol: In another test, mixtures containing a macro (median size 1.6 μm) DCPD and either the nano CaF2 or a macro CaF2 were mixed with water (1g/1 mL) and the pastes were left in 100% humidity at 37° C. for 24 h.

[3] = cited from earlier work
[4] = Solubility of salts in saturated spray drying solutions (Table 2); type: physicochemical
Excerpt: Other examples of the methods of the invention include formation of nano particles of other components. For example, compositions of solution to be spray dried for preparing nano particles of various calcium phosphate phases are set forth in Table 2. Because MCPM is highly soluble, the solution for the nano MCPM production can be prepared by dissolving an appropriate amount of MCPM or other sources of Ca (for example CaCO3) and P (for example H3PO4) in a solution of the desired concentration (Table 2). For the preparation of nano particles of other calcium phosphates, a volatile weak acid is used to facilitate solubilization of the calcium phosphate ions. […] In general, a minimum amount of the volatile weak acid, necessary to keep the calcium and phosphate ions in the solution, is used to facilitate the removal of the acid in the spray drying process.

[5] = acetic acid, high: DCPD/DCPA 996, OCP 995, ACP/TCP 985, HA 998 mmol/L
[6] = acetic acid, low: DCPD/DCPA 0, OCP 0.04, ACP/TCP 0, HA 0.122 mmol/L
[7] = carbonic acid, high: DCPD/DCPA 1000 mol/L, OCP 1018, ACP/TCP 1152, HA 1004 mmol/L
[8] = carbonic acid, low: DCPD/DCPA 0, OCP 0.04, ACP/TCP 0, HA 0.164 mmol/L

Compound	Ksp [1]	consumption of CaF2 by reaction with DCPD (XRD) [2]	IAP(HA) ([3]; comparison value for crystalline HA)	pIAP(HA) ([3]; comparison value for macro scale HA)	[Ca] of saturated solution [4, 5] [mmol/L]	[P] of saturated solution [4, 5] [mmol/L]	pH of saturated solution [4, 5]	[Ca] of saturated solution [4, 6] [mmol/L]	[P] of saturated solution [4, 6] [mmol/L]	pH of saturated solution [4, 6]	[Ca] of saturated solution [4, 7] [mmol/L]	[P] of saturated solution [4, 7] [mmol/L]	pH of saturated solution [4, 7]	[Ca] of saturated solution [4, 8] [mmol/L]	[P] of saturated solution [4, 8] [mmol/L]	pH of saturated solution [4, 8]
[Ca+2].[F-].[F-] [crystalline CaF2, Calcium fluoride]	3.9×10^−11	no reduction	–	–	–	–	–	–	–	–	–	–	–	–	–	–
Hydroxyapatite [HA]	–	–	1×10^−117	117	132	79	3.9	0.1	0.06	6.8	14.2	8.54	4.6	0.1	0.06	6.8
